# Calls of active or inactive are those of the source. The calls are words filed in the database; no cut-off is given here.
# Experiments:
# [1] = tested on: Staphylococcus ureilyticus; test: Antibacterial activity against clinical isolate Staphylococcus ureilyticus 1972 measured after 24 hrs by broth microdilution method; type: functional
# Staphylococcus aureus [2] = test: Antibacterial activity against Staphylococcus aureus ATCC 29213 measured after 24 hrs by broth microdilution method; type: functional
# Bacillus subtilis = test: Antibacterial activity against Bacillus subtilis 168 measured after 24 hrs by broth microdilution method; type: functional
# Micrococcus luteus [3] = test: Antibacterial activity against Micrococcus luteus clinical isolate measured after 24 hrs by broth microdilution method; type: functional
# Escherichia coli [4] = test: Antibacterial activity against Escherichia coli MG 1655 measured after 24 hrs by broth microdilution method; type: functional
# Pseudomonas aeruginosa [5] = test: Antibacterial activity against Pseudomonas aeruginosa ATCC 27853 measured after 24 hrs by broth microdilution method; type: functional
# [6] = Cytotoxicity against human HEK293 cells assessed as cell viability measured after 72 hrs by MTT assay; type: cell-based
# [7] = Cytotoxicity against human mesenchymal stem cells assessed as cell viability measured after 72 hrs by MTT assay; type: cell-based
# [8] = Cytotoxicity against human skin fibroblasts assessed as cell viability measured after 72 hrs by MTT assay; type: cell-based, Fibroblast
# [9] = Genotoxicity in Salmonella typhimurium TA1535/pSK1002 assessed as DNA-damage activity by measuring beta-galactosidase activity at 750 ug/ml measured by SOS-chromotest relative to solvent control; type: toxicity; conditions: salmonella enterica subsp. enterica serovar typhimurium; dose 750 µg/ml
# [10] = Genotoxicity in Salmonella typhimurium TA1535/pSK1002 assessed as DNA-damage activity by measuring beta-galactosidase activity at 150 ug/ml measured by SOS-chromotest relative to solvent control; type: toxicity; conditions: salmonella enterica subsp. enterica serovar typhimurium; dose 150 µg/ml
# [11] = Genotoxicity in Salmonella typhimurium TA1535/pSK1002 assessed as DNA-damage activity by measuring beta-galactosidase activity at 75 ug/ml measured by SOS-chromotest relative to solvent control; type: toxicity; conditions: salmonella enterica subsp. enterica serovar typhimurium; dose 75 µg/ml
# [12] = Genotoxicity in Salmonella typhimurium TA1535/pSK1002 assessed as DNA-damage activity by measuring beta-galactosidase activity at 15 ug/ml measured by SOS-chromotest relative to solvent control; type: toxicity; conditions: salmonella enterica subsp. enterica serovar typhimurium; dose 15 µg/ml
# [13] = Genotoxicity in Salmonella typhimurium TA1535/pSK1002 assessed as DNA-damage activity by measuring beta-galactosidase activity at 7.5 ug/ml measured by SOS-chromotest relative to solvent control; type: toxicity; conditions: salmonella enterica subsp. enterica serovar typhimurium; dose 7.5 µg/ml
# [14] = Genotoxicity in Salmonella typhimurium TA1535 assessed as number of revertant by Ames spot test relative to solvent control; type: toxicity; conditions: salmonella enterica subsp. enterica serovar typhimurium
# [15] = Genotoxicity in Salmonella typhimurium TA1537 assessed as number of revertant by Ames spot test relative to solvent control; type: toxicity; conditions: salmonella enterica subsp. enterica serovar typhimurium
# [16] = Genotoxicity in Salmonella typhimurium TA98 assessed as number of revertant by Ames spot test relative to solvent control; type: toxicity; conditions: salmonella enterica subsp. enterica serovar typhimurium
# [17] = Genotoxicity in Salmonella typhimurium TA100 assessed as number of revertant by Ames spot test relative to solvent control; type: toxicity; conditions: salmonella enterica subsp. enterica serovar typhimurium
# Staphylococcus aureus [18] = test: Antibacterial activity against clinical isolate methicillin-resistant Staphylococcus aureus 713 measured after 24 hrs by broth microdilution method; type: functional
# Staphylococcus aureus [19] = test: Antibacterial activity against clinical isolate methicillin-resistant Staphylococcus aureus 983 measured after 24 hrs by broth microdilution method; type: functional
# Staphylococcus aureus [20] = test: Antibacterial activity against clinical isolate methicillin-resistant Staphylococcus aureus 1053 measured after 24 hrs by broth microdilution method; type: functional
# [21] = tested on: Staphylococcus intermedius; test: Antibacterial activity against clinical isolate methicillin-resistant Staphylococcus intermedius 1061 measured after 24 hrs by broth microdilution method; type: functional
# Staphylococcus aureus [22] = test: Antibacterial activity against clinical isolate methicillin-resistant Staphylococcus aureus 1065 measured after 24 hrs by broth microdilution method; type: functional
# Staphylococcus aureus [23] = test: Antibacterial activity against clinical isolate methicillin-resistant Staphylococcus aureus 1131 measured after 24 hrs by broth microdilution method; type: functional
# [24] = tested on: Staphylococcus intermedius; test: Antibacterial activity against clinical isolate methicillin-resistant Staphylococcus intermedius 1143 measured after 24 hrs by broth microdilution method; type: functional
# Staphylococcus aureus [25] = test: Antibacterial activity against clinical isolate Staphylococcus aureus 25 measured after 24 hrs by broth microdilution method; type: functional
# Enterococcus faecalis [26] = test: Antibacterial activity against clinical isolate Enterococcus faecalis 23 measured after 24 hrs by broth microdilution method; type: functional
# Enterococcus faecalis [27] = test: Antibacterial activity against clinical isolate Enterococcus faecalis 3063 measured after 24 hrs by broth microdilution method; type: functional
# Acinetobacter sp. = test: Antibacterial activity against clinical isolate Acinetobacter sp. 3 measured after 24 hrs by broth microdilution method; type: functional
# Pseudomonas sp. = test: Antibacterial activity against clinical isolate Pseudomonas sp. 5 measured after 24 hrs by broth microdilution method; type: functional
# Klebsiella sp. = test: Antibacterial activity against clinical isolate Klebsiella sp. 11 measured after 24 hrs by broth microdilution method; type: functional
# Proteus sp. = test: Antibacterial activity against clinical isolate Proteus sp. 17 measured after 24 hrs by broth microdilution method; type: functional; conditions: Proteus sp. (in: enterobacteria)
# Escherichia coli [28] = test: Antibacterial activity against clinical isolate Escherichia coli 718 measured after 24 hrs by broth microdilution method; type: functional
# Moraxella = test: Antibacterial activity against clinical isolate Moraxella 765 measured after 24 hrs by broth microdilution method; type: functional
# Klebsiella pneumoniae = test: Antibacterial activity against clinical isolate Klebsiella pneumoniae 1813 measured after 24 hrs by broth microdilution method; type: functional
# Pseudomonas aeruginosa [29] = test: Antibacterial activity against clinical isolate Pseudomonas aeruginosa 1945 measured after 24 hrs by broth microdilution method; type: functional
# Serratia marcescens = test: Antibacterial activity against clinical isolate Serratia marcescens 1966 measured after 24 hrs by broth microdilution method; type: functional
# Staphylococcus aureus [30] = test: Antibiofilm activity against biofilm-embedded Staphylococcus aureus assessed as reduction in log CFU at 1 to 32 times of MBC measured after 24 hrs by drop plate assay; type: functional, organism-based
# Micrococcus luteus [31] = test: Antibiofilm activity against biofilm-embedded Micrococcus luteus assessed as reduction in log CFU at 1 to 32 times of MBC measured after 24 hrs by drop plate assay; type: functional, organism-based
# Escherichia coli [32] = test: Antibiofilm activity against biofilm-embedded Escherichia coli assessed as reduction in log CFU at 1 to 32 times of MBC measured after 24 hrs by drop plate assay; type: functional, organism-based
# Pseudomonas aeruginosa [33] = test: Antibiofilm activity against biofilm-embedded Pseudomonas aeruginosa assessed as reduction in log CFU at 1 to 32 times of MBC measured after 24 hrs by drop plate assay; type: functional, organism-based
# Staphylococcus aureus [34] = test: Antibacterial activity against Staphylococcus aureus assessed as fold increase in MIC after 8 passages by serial dilution method; type: functional, organism-based; conditions: time 24.0 hrs
# Escherichia coli [35] = test: Antibacterial activity against Escherichia coli assessed as fold increase in MIC after 4 passages by serial dilution method; type: functional, organism-based; conditions: time 24.0 hrs
# [36] = Acute toxicity in C57BL/6CBA mouse assessed as death at 2000 mg/kg, po after 7 days; type: organism-based; conditions: in vivo, 168 h, time 7 day
# [37] = Acute toxicity in C57BL/6CBA mouse assessed as enlarged spleen at 2000 mg/kg, po after 7 days; type: organism-based; conditions: in vivo, 168 h, time 7 day
# [38] = Acute toxicity in C57BL/6CBA mouse assessed as pale liver at 2000 mg/kg, po after 7 days; type: organism-based; conditions: in vivo, 168 h, time 7 day
# [39] = Acute toxicity in C57BL/6CBA mouse assessed as pale kidneys at 2000 mg/kg, po after 7 days; type: organism-based; conditions: in vivo, 168 h, time 7 day
# [40] = Acute toxicity in po dosed C57BL/6CBA mouse measured upto 7 days; type: organism-based; conditions: in vivo, time <=7 day
# [41] = Acute toxicity in topically treated C57BL/6CBA mouse measured upto 14 days; conditions: in vivo, topical or ocular, time <=14 day
# Cell membrane [42] = test: Induction of cell membrane damage in Staphylococcus aureus assessed as decrease in flourescence measured for 35 mins with 5 min interval by DioC2(3) based flourescence method
# Cell membrane [43] = test: Induction of cell membrane damage in Escherichia coli assessed as decrease in flourescence measured for 35 mins with 5 min interval by DioC2(3) based flourescence method
# [44] = Acute toxicity in topically treated C57BL/6CBA mouse assessed as death measured at 2500 mg/kg treated as single topically measured after 14 days; type: organism-based; conditions: in vivo, topical_or_ocular, 336 h, time 14 day
# [45] = Acute toxicity in C57BL/6CBA mouse assessed as necropsy measured at 2500 mg/kg treated as single topically measured after 14 days; type: organism-based; conditions: in vivo, topical_or_ocular, 336 h, time 14 day
# [46] = Antibiofilm activity against biofilm-embedded Staphylococcus aureus/Escherichia coli assessed as reduction in viable cells upto 512 mg/L measured after 24 hrs by drop plate based dual species biofilm assay; type: functional, cell-based; conditions: dose mg/L <=512, time 24.0 hrs
# [47] = Antibiofilm activity against biofilm-embedded Staphylococcus aureus/Pseudomonas aeruginosa assessed as reduction in viable cells upto 512 mg/L measured after 24 hrs by drop plate based dual species biofilm assay; type: functional, cell-based; conditions: dose mg/L <=512, time 24.0 hrs
# [48] = Lipophilicity, logP of the compound; type: physicochemical; conditions: octanol/water
structure (smiles),measurement,setting,value
CCCCCCCCCCCC(=O)NCC[N+](C)(C)Cc1cnc(C)c2c1COC(C)(CCC)O2.[Cl-] (stereo unspecified),MIC,[1],64 µg/mL
same,MIC,Staphylococcus aureus [2],1 µg/mL
same,MIC,Bacillus subtilis,2 µg/mL
same,MIC,Micrococcus luteus [3],2 µg/mL
same,MIC,Escherichia coli [4],4 µg/mL
same,MIC,Pseudomonas aeruginosa [5],32 µg/mL
same,CC50 at 72 h,[6],0.15 µg/mL
same,CC50 at 72 h,[7],1.15 µg/mL
same,CC50 at 72 h,[8],1.79 µg/mL
same,Ratio,[9],0.3
same,Ratio,[10],0.5
same,Ratio,[11],0.7
same,Ratio,[12],1.6
same,Ratio,[13],1.6
same,Ratio,[14],0.5
same,Ratio,[15],0.03
same,Ratio,[16],1.9
same,Ratio,[17],1.1
same,MIC,Staphylococcus aureus [18],4 µg/mL
same,MIC,Staphylococcus aureus [19],16 µg/mL
same,MIC,Staphylococcus aureus [20],2 µg/mL
same,MIC,[21],4 µg/mL
same,MIC,Staphylococcus aureus [22],2 µg/mL
same,MIC,Staphylococcus aureus [23],4 µg/mL
same,MIC,[24],4 µg/mL
same,MIC,Staphylococcus aureus [25],2 µg/mL
same,MIC,Enterococcus faecalis [26],2 µg/mL
same,MIC,Enterococcus faecalis [27],2 µg/mL
same,MIC,Acinetobacter sp.,32 µg/mL
same,MIC,Pseudomonas sp.,32 µg/mL
same,MIC,Klebsiella sp.,16 µg/mL
same,MIC,Proteus sp.,> 64 µg/mL
same,MIC,Escherichia coli [28],8 µg/mL
same,MIC,Moraxella,16 µg/mL
same,MIC,Klebsiella pneumoniae,16 µg/mL
same,MIC,Pseudomonas aeruginosa [29],64 µg/mL
same,MIC,Serratia marcescens,64 µg/mL
same,Activity,Staphylococcus aureus [30],Active
same,Activity,Micrococcus luteus [31],Active
same,Activity,Escherichia coli [32],Active
same,Activity,Pseudomonas aeruginosa [33],Active
same,Activity,Staphylococcus aureus [34],Active
same,Activity,Escherichia coli [35],Toxic
same,Activity,[36],Toxic
same,Activity,[37],Toxic
same,Activity,[38],Toxic
same,Activity,[39],Toxic
same,LD50 at 168 h,[40],> 2000 mg/kg
same,LD50 at 336 h,[41],> 2500 mg/kg
same,Activity,Cell membrane [42],Dose-Dependent Effect
same,Activity,Cell membrane [43],Dose-Dependent Effect
same,Activity,[44],Non-Toxic
same,Activity,[45],Non-Toxic
same,Activity,[46],inactive
same,Activity,[47],inactive
same,logP,[48],1.35
